{"source": "patent US11639345B2", "about": "“Methionine metabolic pathway inhibitors” (MIGAL—GALILEE RESEARCH INSTITUTE LTD., priority 2018, dated 2023)", "origin": "cited, not measured here", "molecular_target": "T1, CGS from Nicotiana tabacum (Nicotiana tabacum, UniProt Q9ZPL5)", "T1 sequence (Q9ZPL5 96-540 limits assumed)": "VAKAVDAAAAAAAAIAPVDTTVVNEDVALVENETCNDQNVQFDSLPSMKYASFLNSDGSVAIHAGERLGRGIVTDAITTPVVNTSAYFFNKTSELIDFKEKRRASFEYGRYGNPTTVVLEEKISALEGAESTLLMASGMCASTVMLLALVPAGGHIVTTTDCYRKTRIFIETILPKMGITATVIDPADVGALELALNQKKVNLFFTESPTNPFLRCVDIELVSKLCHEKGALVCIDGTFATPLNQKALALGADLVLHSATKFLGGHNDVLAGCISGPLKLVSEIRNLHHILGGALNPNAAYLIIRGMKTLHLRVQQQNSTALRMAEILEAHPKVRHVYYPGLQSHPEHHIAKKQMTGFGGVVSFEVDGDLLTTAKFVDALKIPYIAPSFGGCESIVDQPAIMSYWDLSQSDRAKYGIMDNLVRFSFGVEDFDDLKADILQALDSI", "conditions": "Steegborn et al. (2001); cited from earlier work"}
{"smiles": "O=C(O)CSc1nc(-c2cccc(Cl)c2)no1", "note": "[5-carboxymethylthio-3-(3′-chlorophenyl)-1,2,4-oxadiazol]", "values": [{"measurement": "affinity to the CGS", "result": "highest affinity to the CGS reported so far"}]}
